Assay results published in publication PMC5522460, “Crystal structure of a low molecular weight activator Blm-pep with yeast 20S proteasome – insights into the enzyme activation mechanism” (Scientific Reports, 2017).
Where no end group is shown, it is not given here.

Molecular target: human 20S proteasome (Homo sapiens, UniProt P25786+P28066)
Assay: Proteolytic stability assay with human 20S proteasome
Format: in vitro ADME
Details: 10 µM peptide, 0.025 mg/ml h20S, 25 mM Tris-HCl pH 8.0, 3 hours, 37 °C, RP-HPLC and MALDI TOF
Experimental: Blm-pep was incubated either with human or yeast 20S proteasome. Both assays were conducted in 25 mM Tris-HCl buffer (pH 8.0, measured at 20 °C), which for y20S contained 0.25 mM EDTA as an additive. The peptide and proteasome concentrations in 100 μl final solution were 10 µM and 0.025 mg/ml, respectively. Incubation was carried out for 3 hours at 37 °C. The reaction was stopped by addition of 5 μl of 10% TFA. Results were analyzed using RP-HPLC and MALDI TOF. Prior to MS analysis the samples were desalted using C18 spin columns (Pierce).

KYFTGSKLWRSYYA [Blm-pep]
proteolytic stability with human 20S proteasome: digested
